Reference: US7018801B2, “Selection of peptides with antibody-like properties” (Board of Regents, The University of Texas System, priority 2000, dated 2006)
Peptide text beside a SMILES is read from it.

Experiments:
[1] = biological target: ICS (pro-IL-1β-derived epitope, 14 mer) (Homo sapiens, UniProt P01584, A117G); assay: Measured KD of the LEPB-ICS complex; type: binding
Description: Finally, the most rigorous tests for peptide-peptide interaction involve spectroscopic assays. These experiments provide quantitative data regarding the affinity of the LEP for the epitope target. For example, fluorescence polarization (Heyduk et al., 1996) can be employed. In this experiment, one of the peptides is synthesized with a covalently coupled fluorescein molecule. A low concentration of this species (usually 10^−8 M to 10^−10 M) is titrated with increasing amounts of a fusion protein containing the partner peptide. The increase in the polarization of the fluorescence as a result of binding of the low molecular weight fluorescein-peptide conjugate to the high molecular weight fusion protein is monitored.
The affinities of the isolated peptides for their epitope targets can be determined by a number of methods. These include fusion of one or both of the interacting peptides to heterologous proteins, followed by the binding of one of the fusions to an affinity resin. The affinity of the partner fusion protein for this resin is then determined. Another common technique is surface plasmon resonance, in which one of the interacting peptides or fusion proteins is immobilized on an appropriately modified gold surface, and the on and off rates of the partner peptide are measured using the commercially available BIAcore instrument or an equivalent. […]

[2] = biological target: T1, GST fusion protein containing the target epitope (Homo sapiens, UniProt P01584, A117G); assay: Far Western blot of DBD-LEP fusions probed with GST-epitope fusion protein; type: binding; settings: extract of phage-resistant cells expressing DBD-LEP fusion; anti-GST antibody detection
T1 construct: made in house
Procedure: FIG. 5—“Far Western” blot protocol to eliminate false positives. An extract is prepared from phage-resistant cells that express the DBD-LEP fusion. This is electrophoresed through a denaturing gel, then blotted onto a membrane. This is probed with a GST fusion protein containing the target epitope, followed by labeled anti-GST antibody to visualize the site(s) of binding of the GST-peptide fusion protein.
The putative epitope-binding LEPs that survive the tests described above are then tested biochemically for epitope binding. […] This is done by expressing a GST fusion protein containing the target peptide at the C-terminus. This protein is then employed as a probe in a Far-Western blot experiment (FIG. 5). Crude extracts from cells that express the Repressor DBD-LEP fusion are electrophoresed through a denaturing gel and blotted onto a suitable surface, such a nitrocellulose. The blot is then probed with the GST-epitope fusion protein, followed by anti-GST antibody and finally an HRP-conjugated secondary to visualize the binding events. Lanes in which the band corresponding to the Repressor DBD-LEP is bound by the GST-epitope fusion protein are considered true hits.

## CC(C)C[C@H](NC(=O)[C@H](CCC(=O)O)NC(=O)[C@H](C)NC(=O)[C@H](CCC(=O)O)NC(=O)[C@H](CCCCN)NC(=O)[C@H](CCCNC(=N)N)NC(=O)[C@H](C)NC(=O)[C@@H](N)CCCCN)C(=O)N[C@@H](C)C(=O)N[C@@H](C)C(=O)N[C@@H](C)C(=O)N[C@H](C(=O)N[C@@H](C)C(=O)N[C@@H](CCC(=O)O)C(=O)N[C@@H](CCC(N)=O)C(=O)O)[C@@H](C)O [LEPB] (H-KARKEAELAAATAEQ-OH)
[1]
  Kd: 2000 nM

## PCHLNCSLQTLSPTRTTPRKHCKHCFKTLSEKMKWN [LEPD]
[2]
  Far Western blot signal: weak or unobservable signals
